We go through two molecules from patent US20080063714A1, “Compositions for Encapsulation and Controlled Release” (priority 2003, published 2008).

Series [1] in a line: Penicillin G degradation in acidic solution pH 2.0. Particulars: pH 2.0, 2 hours, 37° C. The series is classed as physicochemical. The source says: For example, particles of the present invention can protect penicillin G from degradation in acidic environments. When exposed to an acidic environment, such as a solution with pH less than about 5.0, penicillin G is rapidly degraded. […] Penicillin G may be encapsulated in particles of the present invention, such as those comprising triazine derivatives of formula I, and protected from degradation in acidic environment. For example, penicillin G encapsulated in crosslinked particles comprising 4-{[4-(4-carboxyanilino)-6-(3-methyl-1H-imidazol-3-ium-1-yl)-1,3,5-triazin-2-yl]amino}benzoate and a mixture of magnesium and aluminum cations may be exposed to an acidic solution with a pH of 2.0 for 2 hours at 37° C.

Series [2] has as its target T1, adenosine deaminase (Bos taurus, UniProt P56658).
T1 construct: purchased Sigma lot no; 70H8145 (catalogue number not given)
T1 sequence (P56658 2-363 limits assumed): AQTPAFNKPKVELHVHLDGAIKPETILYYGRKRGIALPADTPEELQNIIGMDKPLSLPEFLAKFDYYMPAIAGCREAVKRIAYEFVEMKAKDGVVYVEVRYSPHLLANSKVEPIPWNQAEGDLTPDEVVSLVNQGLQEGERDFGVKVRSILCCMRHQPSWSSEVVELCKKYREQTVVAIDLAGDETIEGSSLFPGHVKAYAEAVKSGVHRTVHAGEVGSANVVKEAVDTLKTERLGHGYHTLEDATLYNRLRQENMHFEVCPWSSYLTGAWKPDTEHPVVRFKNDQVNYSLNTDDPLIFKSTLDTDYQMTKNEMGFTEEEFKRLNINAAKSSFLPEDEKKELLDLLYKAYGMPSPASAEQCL
Kind of series: Adenosine deaminase activity (inosine by HPLC) after exposure to acid or water. It is filed as biochemical. Particulars: after 2 hours in 0.1% trifluoroacetic acid pH 2.0 at room temperature. On the procedure:
One portion of the beads was added to a vial containing 20 ml of a 0.1% trifluoroacetic acid in water (pH of 2.0) test solution. The beads were exposed to the acidic test solution at room temperature for two hours. The acidic test solution was then decanted and discarded. The beads were rinsed with 10 mL deionized water. The water was then decanted and discarded. Phosphate buffer (20 mL, pH of 7.0 with 0.15 M NaCl) was added to the vial with the remaining beads and the vial was agitated on a wrist action shaker for one hour to dissolve the beads. The resulting solution was filtered through a 0.22 μm poly(vinylidene fluoride) filter.
The inosine peak area was 733 units.
The other portion of the beads was added to a vial containing 20 mL of deionized water (pH approx. 7.5). The beads were exposed to the water solution for two hours. The water was then decanted and discarded. Phosphate buffer (20 mL, pH of 7.0 with 0.15 M NaCl) was added to the vial with the remaining beads and the vial was agitated on a wrist action shaker for one hour to dissolve the beads. […] Adenosine deaminase activity was determined as described above. […]
Adenosine deaminase was added to a 20 mL of 0.1% trifluoroacetic acid in water (pH of 2.0) solution to prepare an acidic test solution with a concentration of approximately 110 μg/mL adenosine deaminase. […] Adenosine deaminase activity was determined as described above. […]

On to `CC1(C)S[C@@H]2[C@H](NC(=O)Cc3ccccc3)C(=O)N2[C@H]1C(=O)O` [Penicillin G], for which, in series [1], the “Degradation of penicillin G in acidic solution” value is “almost completely degraded”.

B1: Comparative Example: Unencapsulated adenosine deaminase, approximately 110 μg/mL in 0.1% trifluoroacetic acid in water (pH 2.0) (protein, UniProt P56658 2-363, looked up)
Adenosine deaminase: AQTPAFNKPKVELHVHLDGAIKPETILYYGRKRGIALPADTPEELQNIIGMDKPLSLPEFLAKFDYYMPAIAGCREAVKRIAYEFVEMKAKDGVVYVEVRYSPHLLANSKVEPIPWNQAEGDLTPDEVVSLVNQGLQEGERDFGVKVRSILCCMRHQPSWSSEVVELCKKYREQTVVAIDLAGDETIEGSSLFPGHVKAYAEAVKSGVHRTVHAGEVGSANVVKEAVDTLKTERLGHGYHTLEDATLYNRLRQENMHFEVCPWSSYLTGAWKPDTEHPVVRFKNDQVNYSLNTDDPLIFKSTLDTDYQMTKNEMGFTEEEFKRLNINAAKSSFLPEDEKKELLDLLYKAYGMPSPASAEQCL
B1: the “Adenosine deaminase activity, inosine peak area” value in series [2] is given as 5 units.
